Key:
[1] = tested on: Bacillus subtilis strain KS1; experiment: Drug resistance test: growth of strain KS1 on YBS medium containing a chemical pesticide; assay type: cell-based; conditions: 37° C., 2 days
Description: (§1) In this example, a test for resistance of Bacillus subtilis strain KS1 to chemical pesticides was performed. First, the YBS medium (one containing yeast extract and meat extract in agar) containing the chemical pesticide of interest was prepared in a petri dish. The concentration (ppm) of the chemical pesticide at this time was the same as a general application concentration. Next, Bacillus subtilis strain KS1 was smeared on the surface of the above-mentioned medium containing the chemical pesticide and incubated at 37° C. for 2 days. As a control area, a test for resistance of Bacillus subtilis isolated from a Botokiller water dispersible powder to chemical pesticides was performed in parallel. In this case, the suspension of the Botokiller water dispersible powder was spread on the YBS medium and the bacteria that appeared after overnight incubation at 37° C. were considered as the bacteria constituting a Botokiller water dispersible powder. In the resistance test, the bacteria constituting a Botokiller water dispersible powder were smeared on the surface of the medium containing a chemical pesticide and incubated at 37° C. for 2 days, as is the case with the above-mentioned Bacillus subtilis strain KS1. […]

[2] = tested on: B. subtilis used in a Botokiller water dispersible powder; experiment: Drug resistance test: growth of the bacteria constituting a Botokiller water dispersible powder on YBS medium containing a chemical pesticide; assay type: cell-based, Bacillus subtilis; conditions: 37° C., 2 days
Description: as §1

S=C([S-])NCCNC(=S)[S-].[Mn+2] [Maneb]
Resistance of Bacillus subtilis strain KS1 to the chemical pesticide (in words) [1]: showed resistance
Resistance of the bacteria constituting a Botokiller water dispersible powder to the chemical pesticide (in words) [2]: showed no resistance

— patent publication US20110182871A1, “NOVEL MICROORGANISM AND PLANT DISEASE CONTROL AGENT USING THE MICROORAGNISM” (UNIVERSITY OF YAMANASHI, priority 2008, published 2011)
